Assay results as given in ChEMBL document CHEMBL1201862, “PubChem BioAssay data set” (2004).
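In this assay, cells in 96-well plates receive the compound at five concentrations for 48 hours. Endpoints are linearly interpolated between the surrounding concentrations. GI50 = concentration required for 50% inhibition of growth.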 Active and inactive are the calls of the source. Cut-off read from the data, not from the text of the source: active = GI50 up to about 1.1 µM and inactive = higher.

Legend:
Assay in all cases: DTP human tumour cell line panel, 48 h
A549 = system: A549
CCRF-CEM = system: CCRF-CEM
EKVX = system: EKVX
HCT-15 = system: HCT-15
HT-29 = system: HT-29
K562 = system: K562
M14 = system: M14
MOLT-4 = system: MOLT-4
OVCAR-5 = system: OVCAR-5
RXF 393 = system: RXF 393
SK-MEL-28 = system: SK-MEL-28
SNB-19 = system: SNB-19
SNB-75 = system: SNB-75
SR = system: SR
TK-10 = system: TK-10
UACC-62 = system: UACC-62
Hs-578T = system: Hs-578T
MCF7 = system: MCF7
MDA-MB-435 = system: MDA-MB-435
T47D = system: T47D

SMILES | GI50 (A549) | GI50 (CCRF-CEM) | GI50 (EKVX) | GI50 (HCT-15) | GI50 (HT-29) | GI50 (K562) | GI50 (M14) | GI50 (MOLT-4) | GI50 (OVCAR-5) | GI50 (RXF 393) | GI50 (SK-MEL-28) | GI50 (SNB-19) | GI50 (SNB-75) | GI50 (SR) | GI50 (TK-10) | GI50 (UACC-62) | GI50 (Hs-578T) | GI50 (MCF7) | GI50 (MDA-MB-435) | GI50 (T47D)
O=C1c2cccc3cc([N+](=O)[O-])cc(c23)C(=O)N1NC1=NCCN1 | > 100 µM (inactive) | > 100 µM (inactive) | > 100 µM (inactive) | > 100 µM | > 100 µM (inactive) | > 100 µM (inactive) | > 100 µM (inactive) | > 100 µM (inactive) | > 100 µM (inactive) | > 100 µM (inactive) | > 100 µM (inactive) | > 100 µM (inactive) | > 100 µM (inactive) | > 100 µM (inactive) | > 100 µM (inactive) | > 100 µM (inactive) | – | – | – | –
N=c1c2ccccc2nc2oc3ccccc3n12 | 33.8 µM (inactive) | 55 µM (inactive) | 1.91 µM (inactive) | > 100 µM | > 100 µM (inactive) | > 100 µM (inactive) | – | – | 45.3 µM (inactive) | – | > 10 µM (inactive) | 25.5 µM (inactive) | – | – | 28.4 µM (inactive) | 28.6 µM (inactive) | 20.6 µM (inactive) | 45.1 µM (inactive) | > 100 µM (inactive) | –
CN(C)P(=O)(Oc1occc1C(O)Cc1ccccc1)N(C)C (stereo unspecified) | > 100 µM (inactive) | > 100 µM (inactive) | > 100 µM (inactive) | > 100 µM | – | – | > 100 µM (inactive) | – | > 100 µM (inactive) | > 100 µM (inactive) | > 100 µM (inactive) | > 100 µM (inactive) | > 100 µM (inactive) | – | > 100 µM (inactive) | – | – | > 100 µM (inactive) | > 100 µM (inactive) | > 100 µM (inactive)
CC(=O)Oc1ccc2c(c1)Oc1cc(C(C)=O)ccc1C21OC(=O)c2ccccc21 (stereo unspecified) | > 100 µM (inactive) | – | > 100 µM (inactive) | > 100 µM | > 100 µM (inactive) | > 100 µM (inactive) | > 100 µM (inactive) | > 100 µM (inactive) | > 100 µM (inactive) | 39.7 µM (inactive) | > 100 µM (inactive) | > 100 µM (inactive) | 94.8 µM (inactive) | – | > 100 µM (inactive) | > 100 µM (inactive) | – | > 100 µM (inactive) | 88.3 µM (inactive) | > 100 µM (inactive)
COc1ccc2c3c1O[C@H]1C(OC)C=CC4C(C2)N(Cc2cccs2)CCC341 (stereo partly specified) | 53.8 µM (inactive) | 49.7 µM (inactive) | 88.3 µM (inactive) | 55.2 µM | 69.7 µM (inactive) | 51.6 µM (inactive) | 70.6 µM (inactive) | > 100 µM (inactive) | > 100 µM (inactive) | – | – | > 100 µM (inactive) | – | 75.5 µM (inactive) | 92.5 µM (inactive) | > 10 µM (inactive) | > 100 µM (inactive) | – | 41.5 µM (inactive) | –
C/C(CCn1[nH]c(=O)ccc1=O)=N\Nc1ccc([N+](=O)[O-])cc1[N+](=O)[O-] | > 100 µM (inactive) | > 100 µM (inactive) | > 100 µM (inactive) | 23.6 µM | > 100 µM (inactive) | 20.6 µM (inactive) | 26 µM (inactive) | > 100 µM (inactive) | > 100 µM (inactive) | > 100 µM (inactive) | > 100 µM (inactive) | > 100 µM (inactive) | > 100 µM (inactive) | > 100 µM (inactive) | > 100 µM (inactive) | 5.9 µM (inactive) | – | – | – | –
CNc1ccc(C(=O)CC(O)CCC(C)C2OC(=O)CC(O)CC(=O)CC(O)CC(O)CC(O)CC(O)CC3(O)CC(O)C(C(=O)N4CCOCC4)C(CC(OC4OC(C)C(O)C(N)C4O)\C=C/C=C\C=C/C=C/C=C/C=C\C=C/C2C)O3)cc1 (stereo unspecified) | 0.275 µM (active) | – | – | 0.308 µM | 0.232 µM (active) | 0.378 µM (active) | 0.328 µM (active) | 0.399 µM (active) | 0.607 µM (active) | 0.318 µM (active) | 0.186 µM (active) | 0.365 µM (active) | 0.409 µM (active) | 0.296 µM (active) | 0.247 µM (active) | 0.258 µM (active) | 0.294 µM (active) | 0.285 µM (active) | 0.281 µM (active) | –
O=P(O)(O)C(N=C(Nc1ccccc1)Nc1ccccc1)P(=O)(O)O | > 100 µM (inactive) | – | > 100 µM (inactive) | > 100 µM | > 100 µM (inactive) | – | > 100 µM (inactive) | – | > 100 µM (inactive) | > 100 µM (inactive) | – | > 100 µM (inactive) | – | – | > 100 µM (inactive) | > 100 µM (inactive) | > 100 µM (inactive) | > 100 µM (inactive) | – | –
CCN(C(=O)N[C@@H](Cc1ccccc1)C(=O)N[C@@H](CC(C)C)C(=O)NC)c1ccccc1 | > 100 µM (inactive) | > 100 µM (inactive) | > 100 µM (inactive) | > 100 µM | > 100 µM (inactive) | > 100 µM (inactive) | > 100 µM (inactive) | > 100 µM (inactive) | > 100 µM (inactive) | > 100 µM (inactive) | > 100 µM (inactive) | > 100 µM (inactive) | 95.3 µM (inactive) | – | > 100 µM (inactive) | > 100 µM (inactive) | – | > 100 µM (inactive) | > 100 µM (inactive) | > 100 µM (inactive)
OCC1CCCC1O (stereo unspecified) | > 100 µM (inactive) | > 100 µM (inactive) | – | > 100 µM | > 100 µM (inactive) | > 100 µM (inactive) | > 100 µM (inactive) | > 100 µM (inactive) | > 100 µM (inactive) | > 100 µM (inactive) | > 100 µM (inactive) | > 100 µM (inactive) | > 100 µM (inactive) | > 100 µM (inactive) | > 100 µM (inactive) | > 100 µM (inactive) | – | > 100 µM (inactive) | > 100 µM (inactive) | > 100 µM (inactive)
CC(C)(C)c1cc(-c2c3nc(c(-c4cc(C(C)(C)C)cc(C(C)(C)C)c4)c4ccc([nH]4)c(-c4cc(C(C)(C)C)cc(C(C)(C)C)c4)c4nc(c(-c5cc(C(C)(C)C)cc(C(C)(C)C)c5)c5ccc2[nH]5)C=C4)C=C3)cc(C(C)(C)C)c1 | > 100 µM (inactive) | > 100 µM (inactive) | > 100 µM (inactive) | > 100 µM | > 100 µM (inactive) | > 100 µM (inactive) | > 100 µM (inactive) | > 100 µM (inactive) | > 100 µM (inactive) | > 100 µM (inactive) | > 100 µM (inactive) | > 100 µM (inactive) | > 100 µM (inactive) | > 100 µM (inactive) | > 100 µM (inactive) | > 100 µM (inactive) | – | – | – | –
CN1CCC(=O)/C(=C/c2ccccc2)C1 | 17.7 µM (inactive) | 8.93 µM (inactive) | 23 µM (inactive) | 7.06 µM | 3.32 µM (inactive) | 5.24 µM (inactive) | 13.2 µM (inactive) | 7.74 µM (inactive) | 15.7 µM (inactive) | 13.7 µM (inactive) | 18.2 µM (inactive) | 17.1 µM (inactive) | 6.85 µM (inactive) | 2.91 µM (inactive) | 16.1 µM (inactive) | 21.9 µM (inactive) | – | – | – | –
COc1cc(C23OCC(Cc4cc5c(cc42)OCO5)C3CO)cc(OC)c1OC (stereo unspecified) | 3.48 µM (inactive) | 2.92 µM (inactive) | > 100 µM (inactive) | 0.538 µM | 5.64 µM (inactive) | 3.89 µM (inactive) | 3.64 µM (inactive) | 13.2 µM (inactive) | 6.81 µM (inactive) | 2.02 µM (inactive) | > 100 µM (inactive) | 3.14 µM (inactive) | 2.23 µM (inactive) | 0.187 µM (active) | > 24.4 µM (inactive) | – | 18.5 µM (inactive) | 0.21 µM (active) | 0.119 µM (active) | –
CN(/N=C/C=N/N(C)C1=NCCCN1)C1=NCCCN1 | > 100 µM (inactive) | > 100 µM (inactive) | > 100 µM (inactive) | > 100 µM | > 100 µM (inactive) | > 100 µM (inactive) | > 100 µM (inactive) | > 100 µM (inactive) | > 100 µM (inactive) | > 100 µM (inactive) | > 100 µM (inactive) | > 100 µM (inactive) | > 100 µM (inactive) | > 100 µM (inactive) | > 100 µM (inactive) | > 100 µM (inactive) | > 100 µM (inactive) | > 100 µM (inactive) | > 100 µM (inactive) | –
COc1cc(C2c3cc4c(cc3[C@@H](Nc3ccc(N)cc3)C3COC(=O)[C@H]23)OCO4)cc(OC)c1O (stereo partly specified) | 0.137 µM (active) | 0.222 µM (active) | 3.64 µM (inactive) | 2.21 µM | 3.64 µM (inactive) | 3.13 µM (inactive) | 1.31 µM (inactive) | – | 4.08 µM (inactive) | 3.91 µM (inactive) | 6.76 µM (inactive) | 0.805 µM (active) | 1.94 µM (inactive) | 0.205 µM (active) | 3.64 µM (inactive) | 1.15 µM (inactive) | – | 0.0451 µM (active) | 10.8 µM (inactive) | –
C[n+]1c(-c2ccc(/C=N\Nc3ccnc(N/N=C/c4ccc(-c5cn6ccsc6[n+]5C)cc4)n3)cc2)cn2ccsc21 | 31.3 µM (inactive) | 18.3 µM (inactive) | 24.8 µM (inactive) | 64.4 µM | 9.93 µM (inactive) | 8.71 µM (inactive) | 4.95 µM (inactive) | 24.2 µM (inactive) | 16.7 µM (inactive) | 18.3 µM (inactive) | – | 37.6 µM (inactive) | 34 µM (inactive) | 12.6 µM (inactive) | 20.3 µM (inactive) | 24.4 µM (inactive) | 84.1 µM (inactive) | 34.8 µM (inactive) | 2.24 µM (inactive) | –
